In PubChem BioAssay (NCI) one finds TGI and GI50 data, which are given here for 14 compounds.

The structures appear in SMILES notation.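 In this assay, cells in 96-well plates receive the compound at five concentrations for 48 hours. Endpoints are linearly interpolated between the surrounding concentrations. The concentration for 50% growth inhibition is given as GI50. TGI: total growth inhibition.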

Test systems include A498 renal; COLO 205 colon; HCT-116 colon; HL-60(TB) leukemia; HOP-62 NSCLC; HT29 colon; MOLT-4 leukemia; NCI/ADR-RES ovarian; SK-MEL-5 melanoma; SNB-19 CNS.
Holding throughout (assay): growth of human tumour cells (NCI), 48 h

Take `C=CCOc1ccc(C2c3c([nH][nH]c3=O)CC(O)(OCC)C2C(=O)OCC)cc1OC` (configuration not stated): the TGI in the test on A498 renal, with COLO 205 colon, in the test on HCT-116 colon, in the test on HL-60(TB) leukemia, in the test on HOP-62 NSCLC and in the test with HT29 colon was greater than 100 µM throughout. The TGI with MOLT-4 leukemia, with NCI/ADR-RES ovarian, with SK-MEL-5 melanoma and in the test on SNB-19 CNS was greater than 100 µM each time.
With `Cn1ccnc1CCc1ccc(F)cc1F`, the TGI in the test with A498 renal, in the test with COLO 205 colon, in the test on HL-60(TB) leukemia, in the test with HOP-62 NSCLC, in the test on HT29 colon and in the test on MOLT-4 leukemia was greater than 100 µM each time. The TGI with NCI/ADR-RES ovarian, in the test with SK-MEL-5 melanoma and with SNB-19 CNS was greater than 100 µM in each case.
On to `CC/C(Cl)=N\OC(=O)Nc1ccc(OC)cc1`, for which the TGI was determined as 37 µM in the test with A498 renal; 3.92 µM with COLO 205 colon; 12 µM in the test on HCT-116 colon; 4.36 µM with HL-60(TB) leukemia; 30.3 µM in the test with HOP-62 NSCLC; 33.8 µM with HT29 colon. Besides, the TGI turned out to be 5.59 µM in the test with MOLT-4 leukemia, 15 µM in the test with NCI/ADR-RES ovarian, 14.6 µM in the test with SK-MEL-5 melanoma and 56.2 µM in the test on SNB-19 CNS.
With `O=C1NN=C(c2ccc(Cl)cc2)CC1C1C(=O)N(c2ccccc2)N=C1c1ccccc1` (configuration not stated), the TGI is 84.4 µM with A498 renal; greater than 100 µM in the test on COLO 205 colon; 44.8 µM in the test with HCT-116 colon; greater than 100 µM with HL-60(TB) leukemia; greater than 100 µM with HOP-62 NSCLC; greater than 100 µM in the test on HT29 colon. Also, the TGI with MOLT-4 leukemia, with NCI/ADR-RES ovarian and in the test with SNB-19 CNS was greater than 100 µM in each case.
As to `O=C(O)Cc1ccc(Oc2nc3ccccc3nc2-c2cccs2)cc1`, the TGI was 84.7 µM in the test on A498 renal; 80.1 µM in the test with COLO 205 colon; greater than 100 µM in the test on HCT-116 colon; greater than 100 µM in the test on HL-60(TB) leukemia; greater than 100 µM with HOP-62 NSCLC; greater than 100 µM with HT29 colon. The TGI in the test on MOLT-4 leukemia, with NCI/ADR-RES ovarian, in the test with SK-MEL-5 melanoma and with SNB-19 CNS was greater than 100 µM in each case.
`O=C(CCc1cccc(O)c1)NCCc1cccc(O)c1`: the TGI in the test with A498 renal, in the test on COLO 205 colon, in the test on HCT-116 colon, with HL-60(TB) leukemia, in the test on HOP-62 NSCLC and with HT29 colon was greater than 100 µM each time. The TGI with MOLT-4 leukemia, with NCI/ADR-RES ovarian, in the test with SK-MEL-5 melanoma and in the test with SNB-19 CNS was greater than 100 µM each time.
Turning to `Brc1ccc2c(-c3nc(-c4c[nH]c5ccccc45)cs3)c[nH]c2c1`, the TGI with A498 renal was greater than 92.3 µM; in the test with COLO 205 colon, greater than 79.7 µM; with HCT-116 colon it was greater than 100 µM; in the test on HL-60(TB) leukemia it was greater than 100 µM; in the test with HOP-62 NSCLC, greater than 100 µM; in the test on HT29 colon, greater than 100 µM. Moreover, the TGI is greater than 87 µM in the test with MOLT-4 leukemia, greater than 100 µM in the test on NCI/ADR-RES ovarian, 57.1 µM in the test with SK-MEL-5 melanoma and greater than 100 µM in the test on SNB-19 CNS.
In the case of `Oc1ccc2c(c1)-c1c(c3cc(O)ccc3n1CCN1CCOCC1)CC2`, the TGI is 60 µM with A498 renal; 32.2 µM in the test with COLO 205 colon; 44.8 µM with HCT-116 colon; 49.3 µM in the test with HL-60(TB) leukemia; 72.7 µM in the test with HOP-62 NSCLC; 59.8 µM in the test on HT29 colon. The TGI in the test on MOLT-4 leukemia was 60.4 µM; in the test on NCI/ADR-RES ovarian, 73.9 µM; in the test on SK-MEL-5 melanoma, 30.6 µM; in the test with SNB-19 CNS it was greater than 100 µM.
As to `Cc1c(-c2ccccc2)c(C#N)c2nnn(-c3ccccc3)c(=O)n12`, the TGI with A498 renal, in the test on COLO 205 colon, with HCT-116 colon, in the test with HL-60(TB) leukemia, with HOP-62 NSCLC and with HT29 colon was greater than 100 µM each time. The TGI with NCI/ADR-RES ovarian, with SK-MEL-5 melanoma and in the test with SNB-19 CNS was greater than 100 µM in each case.
For the compound `Cc1c2c(n3c(nc4ccccc43)c1C#N)SCC2`, the TGI in the test with A498 renal, in the test with HCT-116 colon, with HL-60(TB) leukemia, with HOP-62 NSCLC, with HT29 colon and with MOLT-4 leukemia was greater than 10 µM in each case. Moreover, the TGI with NCI/ADR-RES ovarian, in the test with SK-MEL-5 melanoma and in the test with SNB-19 CNS was greater than 10 µM throughout.
As to `CCOC(=O)c1ccc(-c2cc(C)[nH]n2)[nH]1`, the TGI in the test with A498 renal, in the test on COLO 205 colon, in the test on HCT-116 colon, with HL-60(TB) leukemia, in the test with HOP-62 NSCLC and in the test on HT29 colon was greater than 100 µM in each case. For the same compound, the TGI with NCI/ADR-RES ovarian, in the test on SK-MEL-5 melanoma and in the test with SNB-19 CNS was greater than 100 µM each time.
As to `Cc1cc(O)c(C(C)C)cc1NC(=O)Nc1cccc2ccccc12`, the TGI was 26.5 µM in the test with A498 renal; 36.6 µM in the test on HCT-116 colon; greater than 100 µM with HL-60(TB) leukemia; 30.9 µM with HOP-62 NSCLC; 36.1 µM in the test with HT29 colon; greater than 100 µM in the test with MOLT-4 leukemia. Besides, the figures for the TGI in the test on NCI/ADR-RES ovarian, with SK-MEL-5 melanoma and with SNB-19 CNS were 76.2 µM, 27.4 µM and 30.2 µM, respectively.
Turning to `COC12C=C/C(=C(/C(=O)OCc3ccncn3)C(=O)CCCCCCCCC3(OC)C=C/C(=C(/C(=O)OCc4ccncn4)C(=O)CCCCCCCC1)O3)O2`, the GI50 in the test with A498 renal was 0.252 µM; in the test with COLO 205 colon, 0.348 µM; with HCT-116 colon, 0.266 µM; in the test on HL-60(TB) leukemia, 0.298 µM; in the test on HOP-62 NSCLC it was 0.225 µM; with HT29 colon, 0.266 µM. Moreover, the GI50 in the test on NCI/ADR-RES ovarian was 0.417 µM; in the test on SNB-19 CNS it was 0.509 µM. For the same compound, the TGI was 0.833 µM with A498 renal; 1.32 µM in the test on COLO 205 colon; 1.09 µM in the test with HCT-116 colon; 1.4 µM in the test on HL-60(TB) leukemia; 0.6 µM with HOP-62 NSCLC; 0.689 µM in the test with HT29 colon. In addition, the TGI in the test on NCI/ADR-RES ovarian is 12.6 µM; in the test with SNB-19 CNS, 17.1 µM.
As for `CCOC(=O)C1=CN=C2C(=O)N(c3ccccc3)N(C)C2(C)C1=N` (configuration not stated), the TGI with A498 renal, in the test on COLO 205 colon, in the test with HCT-116 colon, in the test on HL-60(TB) leukemia, in the test on NCI/ADR-RES ovarian and with SK-MEL-5 melanoma was greater than 100 µM in each case. The same compound had a TGI in the test with SNB-19 CNS greater than 100 µM.
